# Source: ChEMBL document CHEMBL5390204, “Persephacin Is a Broad-Spectrum Antifungal Aureobasidin Metabolite That Overcomes Intrinsic Resistance in Aspergillus fumigatus” (J Nat Prod, 2023)
# Active and inactive are the calls of the source. No cut-off for these calls is given here.
# Assays:
# Type in all cases: functional, organism-based
# Details in all cases: time 4.0 day
# Candida albicans [1] = test: Antifungal activity against fluconazole-resistant Candida albicans SC5314 infected in pig cornea assessed as suppression of fungal growth at 5 % administered post fungal infection measured after 4 days by microscopic analysis
# Aspergillus fumigatus [2] = test: Antifungal activity against Aspergillus fumigatus NRRL5109 infected in pig cornea assessed as suppression of fungal growth at 5 % administered post fungal infection measured after 4 days by microscopic analysis
# Candida albicans [3] = test: Antifungal activity against Candida albicans SC5314 infected in pig cornea assessed as suppression of fungal growth at 5 % administered post fungal infection measured after 4 days by microscopic analysis
# Candida albicans [4] = test: Antifungal activity against fluconazole-resistant Candida albicans SC5314 infected in pig cornea assessed as suppression of fungal growth at 2 % administered post fungal infection measured after 4 days by microscopic analysis
# Aspergillus fumigatus [5] = test: Antifungal activity against Aspergillus fumigatus NRRL5109 infected in pig cornea assessed as suppression of fungal growth at 2 % administered post fungal infection measured after 4 days by microscopic analysis
SMILES,Activity (Candida albicans [1]),Activity (Aspergillus fumigatus [2]),Activity (Candida albicans [3]),Activity (Candida albicans [4]),Activity (Aspergillus fumigatus [5])
C[C@@H]1C/C=C/C=C/C=C/C=C/[C@H](O[C@@H]2O[C@H](C)[C@@H](O)[C@H](N)[C@@H]2O)C[C@@H]2O[C@](O)(C[C@@H](O)C[C@H]3O[C@@H]3/C=C/C(=O)O1)C[C@H](O)[C@H]2C(=O)O,Active,Active,Active,,
OC(Cn1cncn1)(Cn1cncn1)c1ccc(F)cc1F,,,,inactive,inactive
